Assay results: patent publication US20250320202A1, “PRMT5 INHIBITOR, PREPARATION METHOD THEREFOR, AND PHARMACEUTICAL USE THEREOF” (Abbisko Therapeutics Co., Ltd., priority 2022, published 2025)

tested on: HCT116 MTAP knockout cells; experiment: Human colon cancer HCT116 cell proliferation inhibition test (CellTiter-Glo, 6 days), MTAP knockout cells; format: cell-based; conditions: HCT-116, 144 h
Description: (§1) 1. HCT116 MTAP knockout and MTAP wild-type cells were plated in 96-well flat bottom plates, and cultured overnight with McCoy's 5A medium containing 10% fetal bovine serum+1% penicillin-streptomycin at 37° C. and 5% CO2.
(§2) 2. On the next day, the compound was dissolved with DMSO, diluted with DMSO and medium successively and transferred to the cell plate. The final concentration of the compound was 10 μM, the compound was diluted 4 times, with 9 concentration gradients, and DMSO control was added.
(§3) 3. Cells that have not been treated with the compound were removed. CellTiter-Glo Luminescent Cell Viability Assay (Promega) was used to detect cell viability, the operation was performed with reference to the package insert of the kit, and then the cell plate was placed on EnVision Multilabel Reader to detect the cold light signal.
(§4) 4. Meanwhile, the cell plate treated with the compound was cultured at 37° C. and 5% CO2 for 6 consecutive days.
(§5) 5. Then, CellTiter-Glo was also used to detect cell viability.
(§6) 6. Finally, the four-parameter dose-response curve module of GraphPad Prism v 9.2.0 software was used to plot the dose-response curve and calculate the IC50 for proliferation inhibition (unit: nM).

Compound | IC50 [µM]
Nc1nc2ccc(C(=O)N(CC3CC3)[C@H]3CCc4nc(C(F)(F)F)ccc43)cc2c2cnccc12 [Example 1, (S)-5-amino-N-(cyclopropylmethyl)-N-(2-(trifluoromethyl)-6,7-dihydro-5H-cyclopenta[b]pyridin-5-yl)benzo[c][2,6]naphthyridin-9-carboxamide] | 0.792
Cn1cc(N(C(=O)c2cc3c(cc2F)nc(N)c2cnn(C)c23)[C@@H]2COc3nc(C(F)(F)F)ccc32)cn1 [Example 2, (S)-4-amino-7-fluoro-1-methyl-N-(1-methyl-1H-pyrazol-4-yl)-N-(6-(trifluoromethyl)-2,3-dihydrofuro[2,3-b]pyridin-3-yl)-1H-pyrazolo[4,3-c]quinolin-8-carboxamide] | 0.001
Cn1ncc2c(N)nc3cc(F)c(C(=O)N(Cc4ncccn4)C4CCc5cc(C(F)(F)F)ccc54)cc3c21 (stereo not shown) [Example 7, 4-amino-7-fluoro-1-methyl-N-(pyrimidin-2-ylmethyl)-N-(5-(trifluoromethyl)-2,3-dihydro-1H-inden-1-yl)-1H-pyrazol[4,3-c]quinolin-8-carboxamide] | 0.057
Cn1cc(N(C(=O)c2cc3c(cc2F)nc(N)c2cnn(C)c23)C2COc3cc(C(F)(F)F)ccc32)cn1 (stereo not shown) [Example 21, 4-amino-7-fluoro-1-methyl-N-(1-methyl-1H-pyrazol-4-yl)-N-(6-(trifluoromethyl)-2,3-dihydrobenzofuran-3-yl)-1H-pyrazolo[4,3-c]quinolin-8-carboxamide] | 0.0008
Nc1nc2ccc(C(=O)N(CC3CC3)C3COc4cc(C(F)(F)F)ccc43)cc2c2cnccc12 (stereo not shown) [Example 109, 5-amino-N-(cyclopropylmethyl)-N-(6-(trifluoromethyl)-2,3-dihydrobenzofuran-3-yl)benzo[c][2,6]naphthyridin-9-carboxamide] | 0.015
Nc1nc2ccc(C(=O)N(CC3CC3)C3CCc4nc(C(F)(F)F)ccc43)cc2c2cnccc12 (stereo not shown) [Example 110, 5-amino-N-(cyclopropylmethyl)-N-(2-(trifluoromethyl)-6,7-dihydro-5H-cyclopenta[b]pyridin-5-yl)benzo[c][2,6]naphthyridin-9-carboxamide] | 0.116
Nc1nc2ccc(C(=O)N(CC3CC3)C3COc4nc(C(F)(F)F)ccc43)cc2c2cnccc12 (stereo not shown) [Example 111, 5-amino-N-(cyclopropylmethyl)-N-(6-(trifluoromethyl)-2,3-dihydrofuro[2,3-b]pyridin-3-yl)benzo[c][2,6]naphthyridin-9-carboxamide] | 0.115
Cn1ncc2c(N)nc3cc(F)c(C(=O)N(c4cscn4)C4CCc5cc(C(F)(F)F)ccc54)cc3c21 (stereo not shown) [Example 152, 4-amino-7-fluoro-1-methyl-N-(thiazol-4-yl)-N-(5-(trifluoromethyl)-2,3-dihydro-1H-inden-1-yl)-1H-pyrazolo[4,3-c]quinolin-8-carboxamide] | 0.004
Cn1ncc2c(N)nc3cc(F)c(C(=O)N(CC(F)(F)F)C4COc5cc(C(F)(F)F)ccc54)cc3c21 (stereo not shown) [Example 157, 4-amino-7-fluoro-1-methyl-N-(2,2,2-trifluoroethyl)-N-(6-(trifluoromethyl)-2,3-dihydrobenzofuran-3-yl)-1H-pyrazolo[4,3-c]quinolin-8-carboxamide] | 0.139
Nc1nc2ccc(C(=O)N(c3ncns3)[C@@H]3CCc4cc(C(F)(F)F)ccc43)cc2c2cnccc12 [Example 191, (R)-5-amino-N-(1,2,4-thiadiazol-5-yl)-N-(5-(trifluoromethyl)-2,3-dihydro-1H-inden-1-yl)benzo[c][2,6]naphthyridin-9-carboxamide] | 2.9
Nc1nc2ccc(C(=O)N(CC3CC3)[C@H]3COc4nc(C(F)(F)F)ccc43)cc2c2cnccc12 [Example 196, (R)-5-amino-N-(cyclopropylmethyl)-N-(6-(trifluoromethyl)-2,3-dihydrofuro[2,3-b]pyridin-3-yl)benzo[c][2,6]naphthyridin-9-carboxamide] | 1.53
Nc1nc2ccc(C(=O)N(CC3CC3)[C@@H]3CCc4nc(C(F)(F)F)ccc43)cc2c2cnccc12 [Example 199, (R)-5-amino-N-(cyclopropylmethyl)-N-(2-(trifluoromethyl)-6,7-dihydro-5H-cyclopenta[b]pyridin-5-yl)benzo[c][2,6]naphthyridin-9-carboxamide] | 0.134
Cn1ncc2c(N)nc3cc(F)c(C(=O)N(c4cscn4)[C@@H]4CCc5cc(C(F)(F)F)ccc54)cc3c21 [Example 211, (R)-4-amino-7-fluoro-1-methyl-N-(thiazol-4-yl)-N-(5-(trifluoromethyl)-2,3-dihydro-1H-inden-1-yl)-1H-pyrazolo[4,3-c]quinolin-8-carboxamide] | 0.004
COC[C@@H](C)N(C(=O)c1ccc2nc(N)c3ccncc3c2c1)[C@H]1CCc2cc(C(F)(F)F)ccc21 [Example 215, 5-amino-N-((R)-1-methoxypropan-2-yl)-N-((S)-5-(trifluoromethyl)-2,3-dihydro-1H-inden-1-yl)benzo[c][2,6]naphthyridin-9-carboxamide] | 6.93
COC[C@@H](C)N(C(=O)c1ccc2nc(N)c3ccncc3c2c1)[C@@H]1CCc2cc(C(F)(F)F)ccc21 [Example 216, 5-amino-N-((R)-1-methoxypropan-2-yl)-N-((R)-5-(trifluoromethyl)-2,3-dihydro-1H-inden-1-yl)benzo[c][2,6]naphthyridin-9-carboxamide] | 0.94
COC[C@@H](C)N(C(=O)c1cc2c3c(c(N)nc2cc1F)COC3)[C@H]1CCc2cc(C(F)(F)F)ccc21 [Example 217, 4-amino-7-fluoro-N-((R)-1-methoxypropan-2-yl)-N-((S)-5-(trifluoromethyl)-2,3-dihydro-1H-inden-1-yl)-1,3-dihydrofuro[3,4-c]quinolin-8-carboxamide] | 2.36
COC[C@@H](C)N(C(=O)c1cc2c3c(c(N)nc2cc1F)COC3)[C@@H]1CCc2cc(C(F)(F)F)ccc21 [Example 218, 4-amino-7-fluoro-N-((R)-1-methoxypropan-2-yl)-N-((R)-5-(trifluoromethyl)-2,3-dihydro-1H-inden-1-yl)-1,3-dihydrofuro[3,4-c]quinolin-8-carboxamide] | 0.485

The remaining compounds from weak to strong by IC50, led by results:

IC50 [µM] | Compound
0.64 | C[C@@H](c1ncccn1)N(C(=O)c1cc2c3c(c(N)nc2cc1F)COC3)[C@@H]1CCc2cc(C(F)(F)F)ccc21 [Example 224, 4-amino-7-fluoro-N-((S)-1-(pyrimidin-2-yl)ethyl)-N-((R)-5-(trifluoromethyl)-2,3-dihydro-1H-inden-1-yl)-1,3-dihydrofuro[3,4-c]quinolin-8-carboxamide]
0.325 | Cn1ncc2c(N)nc3ccc(C(=O)N(c4ncccn4)C4CCc5cc(C(F)(F)F)ccc54)cc3c21 (stereo not shown) [Example 214, 4-amino-1-methyl-N-(pyrimidin-2-yl)-N-(5-(trifluoromethyl)-2,3-dihydro-1H-inden-1-yl)-1H-pyrazolo[4,3-c]quinolin-8-carboxamide]
0.217 | C[C@H](c1ncccn1)N(C(=O)c1ccc2nc(N)c3ccncc3c2c1)[C@@H]1CCc2cc(C(F)(F)F)ccc21 [Example 222, 5-amino-N-((R)-1-(pyrimidin-2-yl)ethyl)-N-((R)-5-(trifluoromethyl)-2,3-dihydro-1H-inden-1-yl)benzo[c][2,6]naphthyridin-9-carboxamide]
0.118 | C[C@H](c1ncccn1)N(C(=O)c1cc2c3c(c(N)nc2cc1F)COC3)[C@@H]1CCc2cc(C(F)(F)F)ccc21 [Example 223, 4-amino-7-fluoro-N-((R)-1-(pyrimidin-2-yl)ethyl)-N-((R)-5-(trifluoromethyl)-2,3-dihydro-1H-inden-1-yl)-1,3-dihydrofuro[3,4-c]quinolin-8-carboxamide]
0.052 | Cn1ncc2c(N)nc3cc(F)c(C(=O)N(Cc4cscn4)C4CCc5cc(C(F)(F)F)ccc54)cc3c21 (stereo not shown) [Example 95, 4-amino-7-fluoro-1-methyl-N-(thiazol-4-ylmethyl)-N-(5-(trifluoromethyl)-2,3-dihydro-1H-inden-1-yl)-1H-pyrazolo[4,3-c]quinolin-8-carboxamide]
0.044 | Cn1cc(N(C(=O)c2ccc3nc(N)c4ccncc4c3c2)C2CCc3cc(C(F)(F)F)ccc32)cn1 (stereo not shown) [Example 132, 5-amino-N-(1-methyl-1H-pyrazol-4-yl)-N-(5-(trifluoromethyl)-2,3-dihydro-1H-inden-1-yl)benzo[c][2,6]naphthyridin-9-carboxamide]
0.036 | Nc1nc2ccc(C(=O)N(CC3CC3)C3CCc4cc(C(F)(F)F)ccc43)cc2c2cnccc12 (stereo not shown) [Example 108, 5-amino-N-(cyclopropylmethyl)-N-(5-(trifluoromethyl)-2,3-dihydro-1H-inden-1-yl)benzo[c][2,6]naphthyridin-9-carboxamide]
0.016 | Nc1nc2ccc(C(=O)N(c3cscn3)[C@@H]3CCc4cc(C(F)(F)F)ccc43)cc2c2cnccc12 [Example 212, (R)-5-amino-N-(thiazol-4-yl)-N-(5-(trifluoromethyl)-2,3-dihydro-1H-inden-1-yl)benzo[c][2,6]naphthyridin-9-carboxamide]
0.004 | Cn1cc(N(C(=O)c2cc3c(cc2F)nc(N)c2cnn(C)c23)C2CCc3cc(C(F)(F)F)ccc32)cn1 (stereo not shown) [Example 8, 4-amino-7-fluoro-1-methyl-N-(1-methyl-1H-pyrazol-4-yl)-N-(5-(trifluoromethyl)-2,3-dihydro-1H-inden-1-yl)-1H-pyrazolo[4,3-c]quinolin-8-carboxamide]

tested on: HCT116 MTAP wild-type cells; experiment: Human colon cancer HCT116 cell proliferation inhibition test (CellTiter-Glo, 6 days), MTAP wild-type cells; format: cell-based; conditions: HCT-116, 144 h
Description: as §1, §2, §3, §4, §5, §6

Compound | IC50 [µM]
Cn1cc(N(C(=O)c2cc3c(cc2F)nc(N)c2cnn(C)c23)[C@@H]2COc3nc(C(F)(F)F)ccc32)cn1 [Example 2, (S)-4-amino-7-fluoro-1-methyl-N-(1-methyl-1H-pyrazol-4-yl)-N-(6-(trifluoromethyl)-2,3-dihydrofuro[2,3-b]pyridin-3-yl)-1H-pyrazolo[4,3-c]quinolin-8-carboxamide] | 0.03
Cn1cc(N(C(=O)c2cc3c(cc2F)nc(N)c2cnn(C)c23)C2COc3cc(C(F)(F)F)ccc32)cn1 (stereo not shown) [Example 21, 4-amino-7-fluoro-1-methyl-N-(1-methyl-1H-pyrazol-4-yl)-N-(6-(trifluoromethyl)-2,3-dihydrobenzofuran-3-yl)-1H-pyrazolo[4,3-c]quinolin-8-carboxamide] | 0.079
Nc1nc2ccc(C(=O)N(CC3CC3)C3COc4cc(C(F)(F)F)ccc43)cc2c2cnccc12 (stereo not shown) [Example 109, 5-amino-N-(cyclopropylmethyl)-N-(6-(trifluoromethyl)-2,3-dihydrobenzofuran-3-yl)benzo[c][2,6]naphthyridin-9-carboxamide] | 0.824

The next lines start with the values.

IC50 [µM] | Compound
1.95 | Cn1cc(N(C(=O)c2ccc3nc(N)c4ccncc4c3c2)C2CCc3cc(C(F)(F)F)ccc32)cn1 (stereo not shown) [Example 132, 5-amino-N-(1-methyl-1H-pyrazol-4-yl)-N-(5-(trifluoromethyl)-2,3-dihydro-1H-inden-1-yl)benzo[c][2,6]naphthyridin-9-carboxamide]
1.42 | Nc1nc2ccc(C(=O)N(CC3CC3)C3CCc4cc(C(F)(F)F)ccc43)cc2c2cnccc12 (stereo not shown) [Example 108, 5-amino-N-(cyclopropylmethyl)-N-(5-(trifluoromethyl)-2,3-dihydro-1H-inden-1-yl)benzo[c][2,6]naphthyridin-9-carboxamide]
